Reference: the NIST ThermoML archive (doi:10.1016/j.tca.2014.05.029)
Numbers after ± are expanded uncertainties.

How the values were obtained:
[1] = Molar enthalpy of transition or fusion; conditions: Crystal; DSC
[2] = Crystal; DTA
[3] = molar heat capacity at constant pressure; conditions: 101.33 kPa, Liquid, Small sample (50 mg) DSC

OC[C@H]1O[C@@](CO)(O[C@H]2O[C@H](CO)[C@@H](O)[C@H](O)[C@H]2O)[C@@H](O)[C@@H]1O [D-sucrose]
Conditions	Molar enthalpy of transition or fusion [kcal/mol]	Normal melting temperature [°C]
[1]	7.65 ± 0.239	–
[2]	–	151.2 ± 0.5

[3]
Conditions	molar heat capacity at constant pressure [J/K/mol]
331 K	746.98 ± 15
340 K	756.97 ± 15
350 K	768.07 ± 15
360 K	779.17 ± 16
370 K	790.27 ± 16
380 K	801.37 ± 16
390 K	812.47 ± 16
400 K	823.57 ± 16
410 K	834.67 ± 17
420 K	845.77 ± 17
424 K	850.21 ± 17
430 K	856.87 ± 17
440 K	867.97 ± 17
450 K	879.07 ± 18
460 K	890.17 ± 18
470 K	901.27 ± 18
480 K	912.37 ± 18
490 K	923.47 ± 18
500 K	934.57 ± 19
510 K	945.67 ± 19
520 K	956.77 ± 19
530 K	967.87 ± 19
540 K	978.97 ± 20
550 K	990.07 ± 20
560 K	1001.2 ± 20
570 K	1012.3 ± 20
580 K	1023.4 ± 20
590 K	1034.5 ± 21
600 K	1045.6 ± 21
